The record followed here is patent US7074888B1, “Mimotopes and anti-mimotopes of human platelet glycoprotein Ib/IX” (The Research Foundation of State University of New York, priority 1995, dated 2006).

One experiment concerns mab C-34. Briefly: Neutralization of mab C-34 inhibition of ristocetin-induced aggregation in citrated platelet-rich plasma by mimotope peptide. The class given is cell-based, human. As for the experimental part: (§1) Citrated human platelet-rich plasma (PRP) was prepared by standard methods (Miller et al. 1983). For study of C-34 neutralization by mimotope peptide, 350 μL of PRP containing 150,000 platelets/μL was incubated for 10 min at 22° C. with phosphate-buffered saline (PBS), 20 μg/mL C-34 mab, or 20 μg/mL C-34 that had previously been incubated for 30 min at 22° C. with varying concentrations of peptides. The PRP was then brought to 37° C. and stirred at 1200 rpm in a Chrono-Log lumi-aggregometer (Chrono-Log Corporation, Havertown, Pa.). Aggregation was initiated by the addition of 1 mg/mL ristocetin (Helena Laboratories, Beaumont, Tex.). For screening of bacteriophage clones displaying potential anti-mimotope peptides, 150 μl of PEG/NaCl precipitated phage was incubated with 250 μl of citrated PRP for one hour at 22° C., transferred to the aggregometer, following which ristocetin was added at a final concentration of 0.8 mg/ml.
A peptide including the consensus sequence (SEQ ID NO: 38) was chemically synthesized (Genosys Biotechnologies, The Woodlands, Tex.). […] A modification of this peptide with a biotin attached to the amino-terminal alanine (N-hydroxysuccinimide hexanoic acid long chain spacer arm biotinylation) was also synthesized. One mg of the chemically synthesized biotinylated peptide was dissolved in one ml of water containing 20 μl of DMSO. […] Accordingly, approximately 10 μg of C-34 was incubated at 22° C. for 30 minutes with varying concentrations of test or control peptide, following which the mixture was added to PRP in a final volume of approximately 0.5 ml for an additional 10 minutes at 22° C. […] A similar pattern of C-34 antibody neutralization was observed when the non-biotinylated form of the peptide (having SEQ ID NO:38) was used, with half-maximal neutralization at approximately 3.0 μM.

The test system of the next experiment is platelets. Briefly: Effect of mimotope peptide by itself on platelet aggregation and on ADP-induced aggregation. The class given is cell-based, human.
In experiment [1] the test system is platelets in citrated PRP. Briefly: Functional screening of candidate anti-mimotope bacteriophage clones, ristocetin-induced aggregation in citrated PRP. The class given is cell-based, human. The settings on record: 150 μL phage + 250 μL citrated PRP, 1 hr 22° C., 0.8 mg/mL ristocetin (FIG. 8). As for the experimental part:
FIG. 8 illustrates the functional screening of candidate anti-mimotope bacteriophage clones. Following incubation of 150 μL of the indicated bacteriophage clones with 250 μL of citrated PRP for 1 hr at 22° C., aggregation was initiated by the addition of 0.8 mg/mL ristocetin under stirring conditions at 37° C.;
as §1
The mimotope decapeptide itself was then used as a probe to search for “anti-mimotope” peptides. […]

The subject of the next experiment is formalin-fixed platelets. It counts as cell-based, human. On the procedure: as §1
Further studies were undertaken with chemically synthesized peptide having SEQ ID NO:94: […]. This decapeptide was able to inhibit ristocetin-induced aggregation fully, with an IC50 occurring between 200–400 μg/mL (FIG. 9). […] In order to approximate more closely the native structure, peptides with an (Arg→Lys) substitution at position 7 were then studied. […] Whereas the […] Finally, both the wild-type GPIb alpha 228–237 peptide (SEQ ID NO:108) containing Gly at residue 233 and the PT-vWD variant with Val replacing Gly at this position (SEQ ID NO:107) were synthesized. […] Lyophilized peptides were reconstituted in PBS, pH 6.0 and 150 μL of varying dilutions incubated for 2–4 hr at 22° C. with 250 μL of formalin-fixed platelets ([…]), prior to aggregometry in which the addition of 1 U/mL purified vWF was followed by the addition of 0.9 mg/mL ristocetin.

In the next experiment the test system is mab SZ-2. Briefly: ELISA: phage binding to biotinylated SZ-2 inhibits binding of SZ-2 to immobilized glycocalicin. The settings on record: phage clone. On the procedure:
At this point, an ELISA assay can be used to evaluate individual clones, if the number of clones is high. In brief, phage having undergone two PEG precipitations, and subsequently adjusted for titer, can be incubated overnight with biotinylated mab, following which the mab-phage mixture can be added to wells of microtiter plates that have been previously coated with formalin-fixed platelets (or other suitable immobilized target recognized by the mab). Following a series of washing steps, avidin-peroxidase is added, the wells washed again, chromogenic substrate added, and the wells eventually read on an ELISA plate reader. The relative decrease in strength of signal in this assay provides guidance as to the most promising clones for further study. Consensus peptides identified in this manner can be chemically synthesized and characterized with respect to ability to bind original antibody. Peptides showing high binding affinity for the antibody can then be used as immunogens in mice and/or rabbits. […]

In experiment [2] the target is human platelet glycoprotein Ib/IX complex (human, UniProt P07359 17-652; P13224 26-206; P14770 17-177). Briefly: cell-based or functional assay.

Ends that are not written are not given here.

Sequence of human platelet glycoprotein Ib/IX complex (P07359 17-652, chain 1 of 3): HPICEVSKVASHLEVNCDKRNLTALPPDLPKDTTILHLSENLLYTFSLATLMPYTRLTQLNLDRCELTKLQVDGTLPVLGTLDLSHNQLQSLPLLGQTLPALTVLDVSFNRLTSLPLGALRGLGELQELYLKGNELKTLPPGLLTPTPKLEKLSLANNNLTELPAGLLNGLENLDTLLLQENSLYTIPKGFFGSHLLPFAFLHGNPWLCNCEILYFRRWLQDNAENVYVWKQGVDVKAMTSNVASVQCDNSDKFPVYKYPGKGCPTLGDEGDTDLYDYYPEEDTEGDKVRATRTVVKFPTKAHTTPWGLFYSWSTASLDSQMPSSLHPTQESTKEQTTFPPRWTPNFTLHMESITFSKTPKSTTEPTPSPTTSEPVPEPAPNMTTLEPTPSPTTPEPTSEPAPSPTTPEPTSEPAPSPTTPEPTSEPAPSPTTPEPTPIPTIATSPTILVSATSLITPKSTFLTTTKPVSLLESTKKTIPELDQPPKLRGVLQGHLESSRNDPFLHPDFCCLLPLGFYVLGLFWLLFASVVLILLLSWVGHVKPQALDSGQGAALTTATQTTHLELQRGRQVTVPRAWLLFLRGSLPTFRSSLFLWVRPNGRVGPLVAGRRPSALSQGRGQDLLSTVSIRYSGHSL
Sequence of human platelet glycoprotein Ib/IX complex (P13224 26-206, chain 2 of 3): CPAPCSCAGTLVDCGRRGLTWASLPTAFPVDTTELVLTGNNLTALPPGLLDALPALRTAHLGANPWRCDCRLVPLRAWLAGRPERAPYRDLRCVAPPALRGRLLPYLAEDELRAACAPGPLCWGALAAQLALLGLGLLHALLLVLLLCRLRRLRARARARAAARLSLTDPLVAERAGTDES
Sequence of human platelet glycoprotein Ib/IX complex (P14770 17-177, chain 3 of 3): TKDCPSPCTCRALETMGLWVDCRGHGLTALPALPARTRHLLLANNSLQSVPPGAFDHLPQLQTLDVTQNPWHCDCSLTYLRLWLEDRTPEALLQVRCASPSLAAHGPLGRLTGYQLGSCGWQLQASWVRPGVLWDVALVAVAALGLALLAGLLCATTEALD

Take AWNWRYREYV [SEQ ID NO:1]: the “neutralization of C-34 inhibition of ristocetin-induced aggregation” value is “continued inhibition” in the experiment on mab C-34 (0.14 μM peptide, 20 μg/ml mab C-34 (FIG. 3)); “partial neutralization” in the experiment with mab C-34 (0.27 μM peptide, 20 μg/ml mab C-34 (FIG. 4)); “partial neutralization” with mab C-34 (0.55 μM peptide, 20 μg/ml mab C-34 (FIG. 5)); “partial neutralization” with mab C-34 (1.1 μM peptide, 20 μg/ml mab C-34 (FIG. 6)); “complete neutralization” with mab C-34 (2.3 μM peptide, 20 μg/ml mab C-34 (FIG. 7)). Further, the “influence on ADP-induced aggregation” value in the experiment on platelets (non-specific effects) is on record as “no influence”. Besides, the “induction of platelet aggregation by the peptide by itself” value in the experiment on platelets (peptide alone, PRP) is “did not induce platelet aggregation”.

Regarding RHVAWWRQGV [SEQ ID NO:94, RHVAWWRQGV], the “inhibitory activity of bacteriophage clone in functional platelet assay” value in experiment [1] was “inhibitory activity above background level”. The “IC50 for inhibition of ristocetin-induced aggregation” value with formalin-fixed platelets lay in the range of 200 to 400 µg/mL. In addition, the “inhibition of ristocetin-induced aggregation (extent, in words)” value in the experiment on formalin-fixed platelets (formalin-fixed platelets, 1 U/mL purified vWF, 0.9 mg/mL ristocetin) was “fully”.

As to WHWRSSWKSG [SEQ ID NO:83], the “neutralization of SZ-2 binding to immobilized glycocalicin” value in the experiment with mab SZ-2 was “fully neutralizing”.

Take RHVAWWRQGV [chemically synthesized peptide having SEQ ID NO:94]: the “IC50 of inhibition of ristocetin-induced aggregation of formalin-fixed platelets with vWF” value in experiment [2] lay in the range of 200 to 400 µg/mL.
